{"source": "patent US8188059B2", "about": "“Compounds and methods for modulating expression of GCGR” (Isis Pharmaceuticals, Inc., priority 2006, dated 2012)", "key": {"GCGR mRNA": {"tested_on": "GCGR mRNA", "experiment": "GCGR mRNA levels in liver and estimated ED50, C57/BL6 mice, single i.p. dose (Example 5, Tables 44, 45)", "type": "in vivo, mouse", "experimental": "Eight-week old male C57/BL6 mice (Jackson Laboratory, Bar Harbor, Me.) were administered a single dose of GCGR antisense compound by intraperitonel (i.p.) injection at a concentration of 10, 3.2, 1, and 0.32 μmol·kg. Each dose group consisted of four animals. Shown in Table 43 are the sequences, motifs and conjugates of the GCGR antisense compounds used in this study. Bolded residues indicate 2′-O-methoxyethyl (2′-MOE) modifications and the italicized residues indicate methyleneoxy (4′-CH2—O-2′) BNA modifications. All antisense compounds comprise phosphorothioate internucleoside linkages throughout and each cytosine is replaced with 5-methylcytosine. GCGR antisense compounds target published GCGR nucleic acids, including Genbank Accession No. BC031885.1 (SEQ ID NO: 7).\nTo determine whether the phenotypic changes shown above correlated with a decrease in GCGR mRNA, treated animals were evaluated for levels of target mRNA in liver by RT, real time PCR according to methods described herein. Table 44 show results from direct comparisons of the antisense compounds targeting GCGR nucleic acid for their effect on target expression. Results are expressed as percent of saline control."}, "mouse SGLT2 mRNA [1]": {"tested_on": "mouse SGLT2 mRNA", "experiment": "Mouse SGLT2 mRNA levels in kidney, 1-10-1 MOE gapmers, Balb/c mice (Example 14, Table 65)", "type": "in vivo", "experimental": "The short antisense compounds were analyzed for their effect on mouse SGLT2 mRNA levels. Data was taken from three experiments in which Male 6-week old Balb/c mice were dosed twice per week for two weeks with 450, 150, or 50 nmol/kg of one of the above 1-10-1 MOE gapmers given by intraperitoneal injection. Mice were sacrificed 48 hours following last administration and evaluated for SGLT2 mRNA levels in kidney. Target levels were determined by RT, real-time PCR as described by other examples herein. PCR results were normalized to an internal ISIS control."}, "rat SGLT2 mRNA": {"tested_on": "rat SGLT2 mRNA", "experiment": "Rat SGLT2 mRNA levels in kidney, 1-10-1 gapmers at 250 nmol/kg, Sprague-Dawley rats (Example 14, Table 66)", "type": "in vivo", "details": "for % change in SGLT2 expression relative to saline: 250 nmol/kg i.p. twice per week for three weeks, Sprague-Dawley rats, kidney", "experimental": "The effect of the above 1-10-1gapmers (see Table 64 above) on rat SGLT2 mRNA levels. Data are taken from four experiments in which male Sprague-Dawley rats (170-200 g) were dosed twice per week for three weeks with 250 nmol/kg given by intraperitoneal injection. Rats were sacrificed 48 hours following last administration and evaluated for SGLT2 mRNA levels in kidney. Target levels were determined by RT, real-time PCR as described by other examples herein. PCR results were normalized to an internal ISIS control."}, "mouse SGLT2 mRNA [2]": {"tested_on": "mouse SGLT2 mRNA", "experiment": "Mouse SGLT2 mRNA levels in kidney, additional 1-10-1 and 2-8-2 MOE gapmers, Balb/c mice (Example 15, Table 68)", "type": "in vivo", "experimental": "1-10-1 and 2-8-2 MOE gapmer short antisense compounds were designed to target different regions of the mouse SGLT2 RNA but have complementarity across species. […] All cytidine residues are 5-methylcytidines.\nThe short antisense compounds were analyzed for their effect on mouse SGLT2 mRNA levels in vivo. Data was taken from three experiments in which male 6-week old Balb/c mice were dosed twice per week for three weeks with 0.5, 0.1, or 0.02 umol/kg of either a 1-10-1 or 2-8-2 MOE gapmer given by intraperitoneal injection. Mice were sacrificed 48 hours following last administration and evaluated for SGLT2 levels in kidney. Target levels were determined by RT, real-time PCR as described by other examples herein. PCR results were normalized to an internal ISIS control."}}, "note": "Strand notation (5' to 3'): a small letter for the sugar, then the base; units joined by * are phosphorothioate-linked, units joined directly phosphodiester-linked; [ ] holds rarer units or linkages, { } end groups; capitals alone tell only the bases. e = 2'-O-(2-methoxyethyl) (MOE); [5mC] = 5-methylcytosine; d = 2'-deoxy (DNA)", "data": [{"substance": "396145 (antisense eA*eT*eG*eG*e[5mC]*dT*dT*d[5mC]*dT*d[5mC]*d[5mC]*dA*dT*d[5mC]*dA*eT*eA*eT*e[5mC]*e[5mC]) [compound 396145]", "values": [{"measurement": "GCGR mRNA levels in liver", "setting": "GCGR mRNA; 3.2 μmol/kg single i.p.", "value": "33% of saline control"}, {"measurement": "GCGR mRNA levels in liver", "setting": "GCGR mRNA; 10 μmol/kg single i.p.", "value": "8% of saline control"}]}, {"substance": "396147 (antisense e[5mC]*eT*eT*eG*eG*dG*d[5mC]*dA*dT*dG*d[5mC]*dT*d[5mC]*dG*dT*e[5mC]*eA*eG*eT*e[5mC]) [compound 396147]", "values": [{"measurement": "GCGR mRNA levels in liver", "setting": "GCGR mRNA; 3.2 μmol/kg single i.p.", "value": "68% of saline control"}, {"measurement": "GCGR mRNA levels in liver", "setting": "GCGR mRNA; 10 μmol/kg single i.p.", "value": "28% of saline control"}]}, {"substance": "ISIS 379702: targeted to SGLT2 (antisense eG*d[5mC]*dA*d[5mC]*dA*d[5mC]*dA*dG*d[5mC]*dT*dG*e[5mC])", "values": [{"measurement": "% change in SGLT2 expression relative to saline", "setting": "mouse SGLT2 mRNA [1]; 50 nmol/kg i.p. twice per week for two weeks", "value": "−52.5", "unit": "%"}, {"measurement": "% change in SGLT2 expression relative to saline", "setting": "mouse SGLT2 mRNA [1]; 150 nmol/kg i.p. twice per week for two weeks", "value": "−72.5", "unit": "%"}, {"measurement": "% change in SGLT2 expression relative to saline", "setting": "mouse SGLT2 mRNA [1]; 450 nmol/kg i.p. twice per week for two weeks", "value": "−75", "unit": "%"}, {"measurement": "% change in SGLT2 expression relative to saline", "setting": "rat SGLT2 mRNA", "value": "−25", "unit": "%"}, {"measurement": "% change in SGLT2 expression relative to saline", "setting": "mouse SGLT2 mRNA [2]; 0.02 umol/kg i.p. twice per week for three weeks", "value": "−40", "unit": "%"}, {"measurement": "% change in SGLT2 expression relative to saline", "setting": "mouse SGLT2 mRNA [2]; 0.1 umol/kg i.p. twice per week for three weeks", "value": "−65", "unit": "%"}, {"measurement": "% change in SGLT2 expression relative to saline", "setting": "mouse SGLT2 mRNA [2]; 0.5 umol/kg i.p. twice per week for three weeks", "value": "−70", "unit": "%"}]}, {"substance": "ISIS 381408: SGLT2; 1-10-1 MOE gapmer (antisense TACCGAACACCT; sugars from the 5' end e1 d10 e1, backbone and methylation of C not given here)", "values": [{"measurement": "% change in SGLT2 expression relative to saline", "setting": "rat SGLT2 mRNA", "value": "−5", "unit": "%"}, {"measurement": "expression of SGLT2 in vivo", "setting": "rat SGLT2 mRNA; rat kidney, 250 nmol/kg twice per week for three weeks", "value": "Activity of ISIS 381408 has been shown"}]}]}
